Data on 11 molecules can be found in patent publication US11040952B2, “Phthalazinone compound, method for preparation thereof, pharmaceutical composition thereof, and use thereof” (SHANGHAI INSTITUTE OF MATERIA MEDICA, CHINESE ACADEMY OF …, priority 2017, dated 2021).

Bounds are passed on as bounds.

One series concerns HBV. Briefly: HBV DNA content in the supernatant of cell culture (real-time PCR). Format: cell-based, hepatitis B virus (HBV). The following applies: Hepatitis B virus, HepG2.2.15, 192 h, inhibition of HBV DNA replication, HepG2.2.15 supernatant, 8 days. A digest of the protocol: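 HepG2.2.15 cells stably carrying full-length HBV exposed to compounds for 8 days in DMEM with 10% FBS, medium renewed on day 4. Supernatant virion HBV DNA extracted and quantified by real-time PCR against a 1e^7-1e^4 IU/ml standard curve; IC50 calculated.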
On to `COCCOc1ccc(-c2nn(Cc3ccc(C#N)cc3)c(=O)c3ccccc23)c(F)n1` [IV-31], for which the IC50 (commonly the concentration that gives 50% inhibition) turned out to be 452 nM.
The same measure, in the same setting: the result for `O=c1c2ccccc2c(-c2cccnc2Cl)nn1Cc1ccc(Cl)cc1` [Compound I-6] reads 1700 nM; that for `CN(C)CCCCNc1ccc(-c2nn(Cc3ccc(C#N)cc3)c(=O)c3ccccc23)c(F)n1` [IV-40], 660 nM; that for `Cc1cnc(F)c(-c2nn(Cc3ccc(C#N)cc3)c(=O)c3ccccc23)c1` [Compound I-44], 294 nM.
On the same count and under the same terms, the result for `O=c1c2ccccc2c(-c2ccncc2)nn1Cc1ccc(Cl)cc1` [Compound I-1] reads 7300 nM; that for `COc1cc2c(-c3ccc(C)nc3F)nn(Cc3ccc(Cl)cc3)c(=O)c2cc1OC` [Compound V-6], 2600 nM.
On the same count and under the same terms, the value for `O=c1c2ccccc2c(-c2ccc(C3CC3)nc2F)nn1Cc1ccc(Cl)cc1` [Compound I-31] was 600 nM.
Molecule `[2H]C([2H])(c1ccc(Cl)cc1)n1nc(-c2ccc(C)nc2F)c2ccccc2c1=O` [Compound I-25] showed an IC50 of 1300 nM.
For `CCNCCNc1nc(F)c(-c2nn(Cc3ccc(C#N)cc3)c(=O)c3ccccc23)cc1Cl` [IV-48], the IC50 was 516 nM.
Same read-out and setting: the result for `CCNCCCCNc1nc(F)c(-c2nn(Cc3ccc(C#N)cc3)c(=O)c3ccccc23)cc1Cl` [IV-55] reads 90 nM; that for `N#Cc1ccc(Cn2nc(-c3ccc(NC4COC4)nc3F)c3ccccc3c2=O)cc1` [IV-16], 1000 nM.

Tested on in another series: not listed separately
Briefly: MTT assay for cytotoxicity. Format: cell-based, Human. The following applies: human, HepG2.2.15 cells, half (50%) lethal concentration. An outline of the steps:
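HBV-transfected HepG2.2.15 cells were cultured with compound for 8 days at 37 °C in DMEM/10% FBS, with medium changed on day 4. Viability was read by MTT (4 h, then 12 h lysis, OD570) against control wells. CC50 is the concentration cutting viability by 50%.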
A general note: Tetrazolium dyes change colour on reduction, which living cells bring about.
As to `COCCOc1ccc(-c2nn(Cc3ccc(C#N)cc3)c(=O)c3ccccc23)c(F)n1` [IV-31], the midpoint of cytotoxicity, the CC50 at 8 days, lay at 109000 nM.
Same read-out and setting: the value for `O=c1c2ccccc2c(-c2cccnc2Cl)nn1Cc1ccc(Cl)cc1` [Compound I-6] was above 100000 nM.
Still for that read-out and setting: the result for `CN(C)CCCCNc1ccc(-c2nn(Cc3ccc(C#N)cc3)c(=O)c3ccccc23)c(F)n1` [IV-40] reads 18600 nM.
Consider `Cc1cnc(F)c(-c2nn(Cc3ccc(C#N)cc3)c(=O)c3ccccc23)c1` [Compound I-44], for which the CC50 (as a rule, the concentration at which the toxic effect on the cells reaches its halfway point) at 8 days was determined as 31500 nM.
Still for that read-out and setting: the result for `O=c1c2ccccc2c(-c2ccncc2)nn1Cc1ccc(Cl)cc1` [Compound I-1] reads above 100000 nM; that for `COc1cc2c(-c3ccc(C)nc3F)nn(Cc3ccc(Cl)cc3)c(=O)c2cc1OC` [Compound V-6], above 100000 nM.
On to `O=c1c2ccccc2c(-c2ccc(C3CC3)nc2F)nn1Cc1ccc(Cl)cc1` [Compound I-31], for which the half-maximal cytotoxic concentration (CC50) at 8 days is above 100000 nM.
Still for that read-out and setting: the value for `[2H]C([2H])(c1ccc(Cl)cc1)n1nc(-c2ccc(C)nc2F)c2ccccc2c1=O` [Compound I-25] was above 100000 nM; that for `CCNCCNc1nc(F)c(-c2nn(Cc3ccc(C#N)cc3)c(=O)c3ccccc23)cc1Cl` [IV-48] was 7380 nM; that for `CCNCCCCNc1nc(F)c(-c2nn(Cc3ccc(C#N)cc3)c(=O)c3ccccc23)cc1Cl` [IV-55] was 2560 nM.
On the same count and under the same terms, the result for `N#Cc1ccc(Cn2nc(-c3ccc(NC4COC4)nc3F)c3ccccc3c2=O)cc1` [IV-16] reads 88300 nM.
